From ChEMBL document CHEMBL1275268, “Computational analysis of ligand recognition sites of homo- and heteropentameric 5-HT3 receptors” (Eur J Med Chem, 2010)

Tests used:
[1] = Chemical stability of the compound assessed as half life; assay type: physicochemical
[2] = biological target: T1, 5-hydroxytryptamine receptor 3A (Homo sapiens, UniProt P46098); assay: Binding affinity to 5HT3A receptor
T1 sequence (P46098 whole entry): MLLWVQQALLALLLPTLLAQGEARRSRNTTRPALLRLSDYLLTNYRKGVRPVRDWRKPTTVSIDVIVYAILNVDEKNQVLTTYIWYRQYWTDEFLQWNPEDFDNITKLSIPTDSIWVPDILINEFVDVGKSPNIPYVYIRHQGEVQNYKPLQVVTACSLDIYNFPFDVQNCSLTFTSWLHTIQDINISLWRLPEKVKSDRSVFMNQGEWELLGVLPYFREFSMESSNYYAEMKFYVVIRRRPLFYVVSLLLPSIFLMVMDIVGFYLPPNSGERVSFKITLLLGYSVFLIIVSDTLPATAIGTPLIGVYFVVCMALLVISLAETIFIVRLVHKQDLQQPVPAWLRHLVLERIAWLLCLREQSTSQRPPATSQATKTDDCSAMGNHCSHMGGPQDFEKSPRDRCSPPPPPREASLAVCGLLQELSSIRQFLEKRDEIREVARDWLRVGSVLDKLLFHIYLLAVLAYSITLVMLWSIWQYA

Structure (SMILES): CN1C2CCCC1CC(NC(=O)c1nn(C)c3ccccc13)C2 (stereo not drawn) [GRANISETRON]
- half-life [1]: 5 h

Structure (SMILES): O=C1c2cccc3c2[C@H](CCC3)CN1[C@@H]1CN2CCC1CC2 [PALONOSETRON]
- half-life [1]: 38 h
- Ki [2]: 0.0316 nM
